Patent publication US12441689B2 (EpiVario, Inc., priority 2019, dated 2025)

These molecules were tested against human ACSS2 protein (Homo sapiens (Human), UniProt Q9NR19) (assay: ACSS2 Cell-Free Activity Assay (Cell-Free IC50)). Conditions: 10 nM human ACSS2 protein, 90 minutes at 37 C, pyrophosphatase-coupled, Biomol Green absorbance at 620 nm; read-out: ACSS2 Biochemical IC50.
Chain of human ACSS2 protein (Q9NR19 whole entry): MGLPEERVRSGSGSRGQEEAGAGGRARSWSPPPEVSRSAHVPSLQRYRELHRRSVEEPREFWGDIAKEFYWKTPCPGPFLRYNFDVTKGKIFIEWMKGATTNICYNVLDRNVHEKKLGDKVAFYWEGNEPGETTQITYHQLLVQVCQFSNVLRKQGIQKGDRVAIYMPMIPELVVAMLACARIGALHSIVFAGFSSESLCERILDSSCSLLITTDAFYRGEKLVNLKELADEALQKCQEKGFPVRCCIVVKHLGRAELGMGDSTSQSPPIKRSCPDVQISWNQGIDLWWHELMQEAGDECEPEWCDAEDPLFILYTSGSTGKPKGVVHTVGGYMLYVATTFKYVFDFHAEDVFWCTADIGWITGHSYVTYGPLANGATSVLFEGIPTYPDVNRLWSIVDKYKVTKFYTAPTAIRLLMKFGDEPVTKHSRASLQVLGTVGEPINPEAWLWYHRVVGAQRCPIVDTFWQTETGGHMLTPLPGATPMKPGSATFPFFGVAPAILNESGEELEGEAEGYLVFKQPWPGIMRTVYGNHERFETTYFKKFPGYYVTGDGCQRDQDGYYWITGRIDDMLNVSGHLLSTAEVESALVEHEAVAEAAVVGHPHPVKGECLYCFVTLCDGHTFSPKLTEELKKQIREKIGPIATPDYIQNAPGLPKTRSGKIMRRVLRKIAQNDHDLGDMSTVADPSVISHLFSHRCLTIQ
Description: ACSS2 Cell-Free Activity Assay (Cell-Free IC50)
`CC1=NN(c2ccc(C=C(c3ccccc3)c3ccccc3)c(Br)c2)C(=O)C1C(=O)Nc1cccc(C(C)(F)F)c1` (stereo not shown) [Compound 110] was tested, and the IC50 was 1 to 100 nM. For `CNc1c(C(=O)Nc2cccc(C(C)(F)F)c2)c(C)nn1-c1ccc(OC(F)F)cc1` [Compound 162, N-(3-(1,1-difluoroethyl)phenyl)-1-(4-(difluoromethoxy)phenyl)-3-methyl-5-(methylamino)-1H-pyrazole-4-carboxamide], the IC50 was 1 to 100 nM. `CC1=NN(c2ccc(OC(F)F)cc2)C(=O)C1(C)C(=O)Nc1cc(Cl)c(F)c(Cl)c1` (stereo not shown) [Compound 165, N-(3,5-dichloro-4-fluoro-phenyl)-1-[4-(difluoromethoxy)phenyl]-3,4-dimethyl-5-oxo-pyrazole-4-carboxamide] was tested, and the IC50 was > 100 nM. With `Cc1oc(-c2ccc(OC(F)F)c(-c3ccccc3)c2)nc1C(=O)Nc1cccc(C(C)(F)F)c1` [Compound 124, N-[3-(1,1-difluoroethyl)phenyl]-2-[4-(difluoromethoxy)-3-phenyl-phenyl]-5-methyl-oxazole-4-carboxamide] the IC50 was > 100 nM. `CCC1(C(=O)Nc2cccc(C(C)(F)F)c2)C(=O)N(c2ccc(OC(F)F)c(-c3ccccc3)c2)N=C1C` (stereo not shown) [Compound 100, N-(3-(1,1-difluoroethyl)phenyl)-1-(6-(difluoromethoxy)-[1,1′-biphenyl]-3-yl)-4-ethyl-3-methyl-5-oxo-4,5-dihydro-1H-pyrazole-4-carboxamide] was tested, and the IC50 was > 100 nM. `COc1ccc(N2N=C(C)C(Cl)(C(=O)Nc3cccc(C(C)(F)F)c3)C2=O)cc1` (stereo not shown) [Compound 202, 4-chloro-N-(3-(1,1-difluoroethyl)phenyl)-1-(4-methoxyphenyl)-3-methyl-5-oxo-4,5-dihydro-1H-pyrazole-4-carboxamide] gave an IC50 of 1 to 100 nM. `Cc1nc(-c2ccc(OC(F)F)c(-c3ccccc3)c2)c(C)nc1C(=O)Nc1cccc(C(C)(F)F)c1` [Compound 104, N-(3-(1,1-difluoroethyl)phenyl)-5-(6-(difluoromethoxy)-[1,1′-biphenyl]-3-yl)-3,6-dimethylpyrazine-2-carboxamide] was tested, and the IC50 was > 100 nM. For `COc1ccc(N2N=C(C)C(F)(C(=O)Nc3cccc(C(C)(F)F)c3)C2=O)cc1` (stereo not shown) [Compound 209, N-(3-(1,1-difluoroethyl)phenyl)-4-fluoro-1-(4-methoxyphenyl)-3-methyl-5-oxo-4,5-dihydro-1H-pyrazole-4-carboxamide], the IC50 was < 1 nM. With `CCC(F)(F)c1cccc(NC(=O)c2oc(-c3ccc(OC)cc3)nc2C)c1` [Compound 136, N-(3-(1,1-difluoropropyl)phenyl)-2-(4-methoxyphenyl)-4-methyloxazole-5-carboxamide] the IC50 was 1 to 100 nM. For `CCC(F)(F)c1cccc(NC(=O)c2cc(C)nc(-c3ccc(OC(F)F)c(-c4ccccc4)c3)n2)c1` [Compound 127, 2-(6-(difluoromethoxy)-[1,1′-biphenyl]-3-yl)-N-(3-(1,1-difluoropropyl)phenyl)-6-methylpyrimidine-4-carboxamide], the IC50 was > 100 nM. `Cc1nn(-c2ccc(OC(F)F)cc2)nc1C(=O)Nc1cccc(C(C)(F)F)c1` [Compound 164, N-(3-(1,1-difluoroethyl)phenyl)-2-(4-(difluoromethoxy)phenyl)-5-methyl-2H-1,2,3-triazole-4-carboxamide] was tested, and the IC50 was > 100 nM. In the case of `Cc1nn(-c2ccc(OC(F)F)cc2)c(C)c1C(=O)Nc1cccc(C(C)(F)F)c1` [Compound 184, N-(3-(1,1-difluoroethyl)phenyl)-1-(4-(difluoromethoxy)phenyl)-3,5-dimethyl-1H-pyrazole-4-carboxamide], the IC50 is reported as > 100 nM. Molecule `Cc1nn(-c2ccc(OC(F)F)c(-c3cccnc3)c2)c(C)c1C(=O)Nc1cccc(C(C)(F)F)c1` [Compound 179, N-(3-(1,1-difluoroethyl)phenyl)-1-(4-(difluoromethoxy)-3-(pyridin-3-yl)phenyl)-3,5-dimethyl-1H-pyrazole-4-carboxamide] has an IC50 of 1 to 100 nM. Work on `CCC1(C(=O)Nc2cccc(C(C)(F)F)c2)C(=O)N(c2ccc(OC(F)F)cc2)N=C1C` (stereo not shown) [Compound 159, N-(3-(1,1-difluoroethyl)phenyl)-1-(4-(difluoromethoxy)phenyl)-4-ethyl-3-methyl-5-oxo-4,5-dihydro-1H-pyrazole-4-carboxamide] yielded an IC50 of 1 to 100 nM. With `Cc1ncc(-c2ccc(OC(F)F)c(-c3ccccc3)c2)nc1C(=O)Nc1cccc(C(C)(F)F)c1` [Compound 118, N-[3-(1,1-difluoroethyl)phenyl]-6-[4-(difluoromethoxy)-3-phenyl-phenyl]-3-methyl-pyrazine-2-carboxamide] the IC50 was > 100 nM. In the case of `CCC(F)(F)c1cccc(NC(=O)c2nc(-c3ccc(OC(F)F)cc3)oc2C)c1` [Compound 112, 2-(4-(difluoromethoxy)phenyl)-N-(3-(1,1-difluoropropyl)phenyl)-5-methyloxazole-4-carboxamide], the IC50 is reported as 1 to 100 nM. `CCC(F)(F)c1cccc(NC(=O)c2c(C)[nH]c(-c3ccc(OC)c(-c4ncccc4C)c3)[n+]2[O-])c1` [Compound 249, 4-((3-(1,1-difluoropropyl)phenyl)carbamoyl)-2-(4-methoxy-3-(3-methylpyridin-2-yl)phenyl)-5-methyl-1H-imidazole 3-oxide] was tested, and the IC50 was < 1 nM. With `Cc1nc(-c2ccc(OC(F)F)cc2)cnc1C(=O)Nc1cccc(C(C)(F)F)c1` [Compound 133, N-(3-(1,1-difluoroethyl)phenyl)-5-(4-(difluoromethoxy)phenyl)-3-methylpyrazine-2-carboxamide] the IC50 was > 100 nM. In the case of `CCC(F)(F)c1cccc(NC(=O)c2ncc(-c3ccc(OC(F)F)c(-c4ccccc4)c3)nc2C)c1` [Compound 134, 5-[4-(difluoromethoxy)-3-phenyl-phenyl]-N-[3-(1,1-difluoropropyl)phenyl]-3-methyl-pyrazine-2-carboxamide], the IC50 is reported as > 100 nM. `Cc1nn(-c2ccc(OC(F)F)cc2)c(N)c1C(=O)Nc1cccc(C(C)(F)F)c1` [Compound 171, 5-amino-N-(3-(1,1-difluoroethyl)phenyl)-1-(4-(difluoromethoxy)phenyl)-3-methyl-1H-pyrazole-4-carboxamide] was tested, and the IC50 was > 100 nM. With `CCC(F)(F)c1cccc(NC(=O)c2c(C)nn(-c3ccc(OC)cc3)c2C(C)=O)c1` [Compound 230, 5-acetyl-N-(3-(1,1-difluoropropyl)phenyl)-1-(4-methoxyphenyl)-3-methyl-1H-pyrazole-4-carboxamide] the IC50 was > 100 nM. `Cc1nn(-c2ccc(OC(F)F)c(-c3cccnc3)c2)cc1C(=O)Nc1cccc(C(C)(F)F)c1` [Compound 182, N-(3-(1,1-difluoroethyl)phenyl)-1-(4-(difluoromethoxy)-3-(pyridin-3-yl)phenyl)-3-methyl-1H-pyrazole-4-carboxamide] showed an IC50 of 1 to 100 nM. In the case of `CCC(F)(F)c1cccc(NC(=O)c2c(C)oc(-c3ccc(OC)c(-c4ncccc4C)c3)[n+]2[O-])c1` [Compound 251, 4-((3-(1,1-difluoropropyl)phenyl)carbamoyl)-2-(4-methoxy-3-(3-methylpyridin-2-yl)phenyl)-5-methyloxazole 3-oxide], the IC50 is reported as > 100 nM. With `Cc1nc(-c2cc(-n3cc(C(=O)Nc4cccc(C(C)(F)F)c4)c(C)n3)ccc2OC(F)F)co1` [Compound 131, N-(3-(1,1-difluoroethyl)phenyl)-1-(4-(difluoromethoxy)-3-(2-methyloxazol-4-yl)phenyl)-3-methyl-1H-pyrazole-4-carboxamide] the IC50 was > 100 nM. `CC1=NN(c2ccc(OC(F)F)cc2)C(=O)C1(C)C(=O)Nc1cc(C)cc(Cl)c1` (stereo not shown) [Compound 157, N-(3-chloro-5-methyl-phenyl)-1-[4-(difluoromethoxy)phenyl]-3,4-dimethyl-5-oxo-pyrazole-4-carboxamide] was tested, and the IC50 was > 100 nM. For `CCC(F)(F)c1cccc(NC(=O)c2nc(-c3ccc(OC(F)F)c(-c4ccccc4)c3)[nH]c2C)c1` [Compound 218, 2-(6-(difluoromethoxy)-[1,1′-biphenyl]-3-yl)-N-(3-(1,1-difluoropropyl)phenyl)-5-methyl-1 H-imidazole-4-carboxamide], the IC50 was > 100 nM. Molecule `CC1=NN(c2ccc(OC(F)F)cc2)C(=O)C1(Cl)C(=O)Nc1cccc(C(C)(F)F)c1` (stereo not shown) [Compound 172, 4-chloro-N-(3-(1,1-difluoroethyl)phenyl)-1-(4-(difluoromethoxy)phenyl)-3-methyl-5-oxo-4,5-dihydro-1H-pyrazole-4-carboxamide] has an IC50 of 1 to 100 nM. Molecule `COc1ccc(-n2nc(C)c(C(=O)Nc3cccc(C(C)(F)F)c3)c2OC(=O)N2CCC(N3CCCCC3)CC2)cc1` [Compound 188, 4-((3-(1,1-difluoroethyl)phenyl)carbamoyl)-1-(4-methoxyphenyl)-3-methyl-1H-pyrazol-5-yl [1,4′-bipiperidine]-1′-carboxylate] has an IC50 of 1 to 100 nM.
